In US8617540B2, “Combinational chemotherapy treatment” (Fox Chase Cancer Center, priority 2009, dated 2013):
Where two headings read alike, the source gives them in different places.

How the values were obtained:
HT-29 cells = test: Cell cycle analysis of synchronized cells; type: cell-based; conditions: 48 h of treatment with 5-FU and HmdU
Protocol: Panel A is a cell cycle analysis of synchronized HT-29 cells with 5-FU, HmdU, and combined 5-FU/HmdU treatment over a period of two days.
First, clonogenic assays were performed to determine the time course of the combination of 5-FU and HmdU. […] Subsequently, cell cycle distribution was assessed.

[1] = test system: cells treated with 5-FU and HmdU; test: Effect of PARP-1 inhibitors on cytotoxicity of 5-FU and HmdU; conditions: PARP-1 inhibitor added
Text: (§1) Taking account of effect of 3-aminobenzamide on cell cycle shown FIG. 14B, effects of PARP-1 inhibitors on cytotoxicity were examined.

HT-29 colon cancer cells = test: Cell growth assay (WST-1), combination analysed with CombiTool; type: cell-based; conditions: for synergistic activity on growth inhibition in combination with HmdU: 5-FU related compound used with HmdU; for synergistic activity on growth inhibition when combined with 5-FU: HmdU related drug combined with 5-FU
Protocol: In a typical cell growth assay, cells were plated in 96-well plates on Day 0, and indicated concentrations of drugs were added on Day 1. Each condition was replicated in triplicate. Subsequently, quantities of metabolically active cells in each well were measured by WST-1 assay on Day 4. The WST-1 assay (assay reagents from Roche) measures the concentration of formazan converted from a tetrazolium salt, WST-1, by a mitochondrial succinate-tetrazolium-reductase system.
CombiTool is a computer program for the analysis of combination effects of biologically active agents and is described in Dressler et al. (Computers and Biomedical Research (1999) 32:145-160). It performs model calculations and an analysis of experimental combination effects for two or three agents according to both the Bliss independence and the Loewe additivity criteria. Zero interaction response surfaces are calculated from single-agent dose-response relations and compared to experimental combination data. The calculation of response surfaces for Loewe additivity is based on a new approach which combines the implicit definition equation in terms of doses alone with single-agent dose-response relations. CombiTool has a built-in graphics facility which allows for the direct visualization of the response surfaces or the corresponding contour plots and the experimental data.
In the present example, the in vitro effects of 5-FU and HmdU treatment were assessed in several cell lines. […] FIG. 1B show the results interpreted with the CombiTool program which indicates synergistic experimental data by large gray circles above the lower additive results when the drugs are used alone. […] FIGS. 1C and 1D show similar results from experiments in the colon cancel cell line, HCT116.
Further testing was performed on the HT-29 cell line to assess whether compounds that are structurally and/or functionally related to 5-FU and HmdU also display synergistic activity on growth inhibition. In a series of experiments 5-FU was tested with: (1) 5-Hydroxymethyluracil (HmU), a base form which is subsequently converted to a nucleoside form, HmdUrd; (2) Deoxyuridine (dUrd), a nucleoside which is different from HmdU by the lack of modification at the 5-carbon position; and (3) 5-Hydroxydeoxyuridine (OHdU), a nucleoside which is different from HmdU by the lack of a methyl group in the 5-carbon modification. […] See FIG. 7A-7D (HmU—obtained from Cayman Chemical and Aldrich Chemical Company, respectively+5FU), FIG. 8A-8B (dUrd+5FU), and FIG. 9A-9B (OHdU+5FU).
Another set of experiments tested several alternative 5-FU agents in combination with HmdU to determine if synergy exists when the agents were administered in combination. The 5-FU related compounds used with HmdU were: (1) 5-Fluorodeoxyuridine (5-FdU), a deoxyribonucleoside (2) Deoxyadenosine (dA), an agent capable of decreasing dTTP; and (3) Raltitrexed, a structural analog of 5,10-methylene tetrahydrofolate (CH2THF), and a specific inhibitor of thymidylate synthase (TS). […] See FIGS. 11 (dA) and 12 (Raltitrexed).

HT-29 = test: Caspase inhibitor rescue from cell killing by 5-FU and HmdU; type: cell-based; conditions: caspase inhibitor added
Protocol: Further, experiments were performed to uncover whether the combined treatment with 5-FU and HmdU induces PARP1 cleavage, which would indicate that apoptosis is the pathway responsible for the cytotoxic effects. […] Both of the results in FIGS. 17 and 18 indicate that the cell killing by the combined drug treatment is not via apoptosis. However, the combination has a synergistic effect on the cytotoxicities of 5-FU and HmdU, and derivatives thereof.

[2] = test system: cells treated with 5-FU and HmdU
Text: as §1

SMILES	synergistic activity on growth inhibition in combination with HmdU (HT-29 colon cancer cells)	synergistic activity on growth inhibition when combined with 5-FU (HT-29 colon cancer cells)	further results
NC(=O)c1cccc(N)c1 [3-aminobenzamide]	–	–	effect of added agent on the cell cycle (HT-29 cells): allows cells to complete DNA replication; effect on growth inhibition by 5-FU and HmdU [1]: rescued cells from growth inhibition
Cn1c(=O)c2c(ncn2C)n(C)c1=O [caffeine]	–	–	effect of added agent on the cell cycle (HT-29 cells): overcomes G2/M arrest
O=c1[nH]c(=O)n([C@H]2C[C@H](O)[C@@H](CO)O2)cc1F [5-FdU, 5-Fluorodeoxyuridine]	strong synergy	–	–
Nc1ncnc2c1ncn2[C@H]1C[C@H](O)[C@@H](CO)O1 [dA, Deoxyadenosine]	did not show any significant synergistic effects	–	–
O=c1ccn([C@H]2C[C@H](O)[C@@H](CO)O2)c(=O)[nH]1 [dUrd, Deoxyuridine]	–	did not show any significant synergistic effects	–
CC(C)[C@H](NC(=O)c1ccc2ccccc2n1)C(=O)N[C@@H](CC(=O)O)C(=O)COc1c(F)cccc1F [QVD]	–	–	rescue from cell killing by the 5-FU and HmdU treatment (HT-29): did not rescue
O=c1[nH]cc(CO)c(=O)[nH]1 [HmU, 5-Hydroxymethyluracil]	–	did not show any significant synergistic effects	–
Cc1nc2ccc(CN(C)c3ccc(C(=O)N[C@@H](CCC(=O)O)C(=O)O)s3)cc2c(=O)[nH]1 [Raltitrexed]	did not show any significant synergistic effects	–	–
Nc1ccc2c3c(cccc13)C(=O)NC2=O [4-amino-1,8-naphtalimide]	–	–	effect on growth inhibition by 5-FU and HmdU [2]: rescued cells from growth inhibition
O=c1[nH]c(=O)n([C@H]2C[C@H](O)[C@@H](CO)O2)cc1O [OHdU, 5-Hydroxydeoxyuridine]	–	did not show any significant synergistic effects	–
